# Earlier results, collected in patent US6610297B1, “Peptide immunogens for vaccination against and treatment of allergy” (Novartis AG, priority 1996, dated 2003).
# Target: T1, FcεRI (Homo sapiens, UniProt P12319)
# T1 sequence (P12319 26-257): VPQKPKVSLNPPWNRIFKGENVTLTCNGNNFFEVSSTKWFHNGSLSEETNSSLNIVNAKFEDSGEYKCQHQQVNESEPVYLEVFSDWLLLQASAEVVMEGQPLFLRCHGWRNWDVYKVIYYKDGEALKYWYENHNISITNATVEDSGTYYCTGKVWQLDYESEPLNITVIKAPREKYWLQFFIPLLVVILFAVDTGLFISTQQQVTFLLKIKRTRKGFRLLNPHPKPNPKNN
# Conditions: read-out: affinity of IgE for FcεRI (Kd); cited from earlier work
substance,measurement,value
immunoglobulin E [IgE],Kd,~0.1 nM
